Measurements from US20220296611A1, “PHARMACEUTICAL COMPOSITION FOR PREVENTING OR TREATING CANCER” (SEOUL NATIONAL UNIVERSITY R&DB FOUNDATION, priority 2019, published 2022).

Key:
HeLa cells = experiment: Comparison of cell viability of HeLa cells (MTT assay); type: cell-based; conditions: 24 h and 48 h after treatment; TUDCA 1000 μM, fenbendazole 1.2 μM, doxorubicin 10 μM
Procedure: 3. MTT Assay As illustrated in the flow chart shown in FIG. 1, the degree of cytotoxicity was evaluated through MTT assay. (1) HeLa cells are cervical cancer cell lines. In this experiment, experimental groups were divided as follows: specifically, a group in which HeLa cells are not treated, that is, no treatment group (NT); a doxorubicin-treated group (Doxo); a fenbendazole-treated group (Fen); a TUDCA treated group (TUDCA); and a group treated with a mixture of fenbendazole and TUDCA (Fen+TUDCA), and cell viability was compared over time (24 h, 48 h) after treatment. […] Further, the mixture of fenbendazole and TUDCA was prepared by mixing both compounds with the above concentrations at the same dose. Further, all treatment groups were treated with the corresponding compounds at the same dose.

Hepa cells (Hepa1c1c7) = experiment: Comparison of cell viability of Hepa cells (MTT assay, cell number counting); type: cell-based, Murin; conditions: 48 h
Procedure: After culturing cells, the cells were resuspended in a fresh medium. After obtaining 200 μL of the cell suspension, […] of […] with a dilution factor of 2× was added thereto.
A hemocytometer equipped with a coverslip was prepared, and each chamber was filled with the suspension, followed by counting the number of cells. A specific counting method is as follows.
1) Live cells/ml=No. of cells counted/No. of squares counted×Dilution factor×1000
2) Dead cells/ml=No. of dead cells/No. of squares counted×Dilution factor×100
3) Percentage Viability=No. of live cells/Total No. of cells×100
As illustrated in the flow chart shown in FIG. 1, the degree of cytotoxicity was evaluated through MTT assay.
(1) In the present invention, all liver cancer cell lines were Murin hepatoma cell lines (Hepa1c1c7), hereinafter, referred to as Hepa cells. In this experiment, the following definitions were applied: no treatment group (NT); a fenbendazole treatment group (Fen); a TUDCA 200 μmol treatment group (TUDCA 200); a TUDCA 500 μmol treatment group (TUDCA 500); a TUDCA 1000 μmol treatment group (TUDCA 1000); a mixture of 1.2 μmol fenbendazole and 200 μmol TUDCA (1.2+200); a mixture of 1.2 μmol fenbendazole and 500 μmol TUDCA (1.2+500); a mixture of 1.2 μmol fenbendazole and 1000 μmol TUDCA (1.2+1000), respectively. […]

SMILES | apoptotic effects (cell viability of HeLa cells) compared to doxorubicin (HeLa cells) | apoptosis effect depending on the concentration of TUDCA (Hepa cells (Hepa1c1c7))
COC(=O)Nc1nc2ccc(Sc3ccccc3)cc2[nH]1 [fenbendazole] | more excellent apoptotic effects at 24 h and 48 h after treatment than doxorubicin | –
C[C@H](CCC(=O)NCCS(=O)(=O)O)[C@H]1CC[C@H]2[C@@H]3[C@@H](O)C[C@@H]4C[C@H](O)CC[C@]4(C)[C@H]3CC[C@]12C [TUDCA, tauroursodeoxycholic acid] | more excellent apoptotic effects at 24 h and 48 h after treatment than doxorubicin | the higher the concentration of TUDCA, the better the apoptosis effect at 48 h
